According to US6002008A, “Substituted 3-cyano quinolines” (American Cyanamid Company, priority 1998, dated 1999):

Assays:
Assay in all cases: Inhibition of cancer cell growth as measured by cell number
Assay type in all cases: cell-based, human
A431 = conditions: A431, 48 hours, Table 8
Source text: (§1) The cell lines were chosen since they overexpressed epidermal growth factor receptor (EGFR) (i.e. A431) or HER2/neu (SKBR3), or had little to no expression of the these receptors (SW620, LOX, MCF7).

SW620 = conditions: SW620, 48 hours, Table 8
Source text: as §1

SKBR3 = conditions: SKBR3, 48 hours, Table 8
Source text: as §1

CCCN(CC#CC(=O)Nc1ccc2ncc(C#N)c(Nc3cccc(Br)c3)c2c1)CCC [Example 170, N-{4-[(3-Bromophenyl)amino]-3-cyano-6-quinolinyl}-4-dipropylamino-2-butynamide]
Inhibition of Cancer Cell Growth as Measured by Cell Number (IC50) (A431): 0.03 µg/mL
Inhibition of Cancer Cell Growth as Measured by Cell Number (IC50) (SW620): 0.1 µg/mL
Inhibition of Cancer Cell Growth as Measured by Cell Number (IC50) (SKBR3): 0.03 µg/mL
